Test results: US10471076B2, “Compositions and methods to treat vision disorders” (YouHealth Biotech, Limited, priority 2014, dated 2019)
Where “and” joins values, the source holds several entries; their conditions need not be identical. Equal values may be shown once. Entries after “also recorded” stand apart in the source; their conditions may differ.

Columns and labels:
[1] = test system: cataract-causing mutant crystallin proteins; assay: Intracellular aggregation of mutant crystallins in HLEB-3 cells; format: cell-based, human; details: then 12 h
Experimental: FIG. 9A, FIG. 9B, and FIG. 9C show inhibition of crystallin mutant aggregation by wild-type LSS and lanosterol in HLEB-3 cells (FIG. 9A) or HeLa cells (FIG. 9B). Cells co-transfected with LSS and crystallin mutant constructs were cultured for 24 h before assaying for aggregates. The rescue experiments were performed by addition of 40 […] μM sterols (lanosterol or cholesterol) to the cell culture medium for 2 h, the sterol medium was then replaced with fresh culture medium and the cells were cultured for a further 12 h. The percentage of cells with crystallin aggregates were calculated from ten randomly selected viewing fields. The values of the wild-type LSS group, mutant group, or mutant plus lanosterol group were calculated. […] After transfection for 4 h and incubation in fresh culture medium for another 24 h, the cells were lysed and centrifuged to separate supernatant and insoluble fractions. LSS and crystallin fusion proteins were detected by antibodies against Flag and GFP, respectively. Red arrows indicate higher crystalline content in the soluble fraction versus in the insoluble fraction in cells containing the WT-LSS.
Cells were transfected with various crystallin constructs for 4 h and cultured for an additional 24 h in fresh culture medium. Then the cells were treated with 10, 20 and 40 μM lanosterol in 1% (HLEB-3 cells) or 2% DMSO (HeLa cells) for 2 h and cultured for another 12 h. Cells treated with 1% (HLEB-3 cells) or 2% DMSO (HeLa cells) were used as the controls. Formation of intracellular aggregates of various crystallin proteins was visualized by fluorescence of GFP (green) and the nuclei were stained with Hoechst 33342 (blue). Typical intracellular aggregates are indicated by arrows.
The impact of LSS and lanosterol on intracellular crystallin aggregation were evaluated in single-blinded observer studies. Experiments have been repeated at least three times. P values were calculated using Student's t-tests. Fluorescence microscopy. […]

[2] = test system: amyloid-like fibrils of crystallin proteins; assay: Re-dissolution of pre-formed amyloid-like fibrils (ThT fluorescence, TEM, turbidity); format: biochemical, human; details: 0.2 mg/ml aggregates; 500 μM sterols in 500 μM DPPC liposome (b129 prints 500 mM), 37° C., 24 h; TEM and ThT fluorescence; concentration-dependent
Experimental: Crystallin aggregates were formed by incubating 5 mg ml^−1 protein solution at 60° C. for 2 h (α-crystallins) or 37° C. for 48 h (β- and γ-crystallins) in the presence of 1 M guanidine chloride. The preformed aggregates were re-suspended in PBS at a final protein concentration of 0.2 mg ml^−1 and were treated with 500 μM sterols in 500 μM DPPC liposome and incubated at 37° C. for 24 h. Aggregates treated with 500 μM DPPC liposome only were used as the controls. […] Aggregates treated with 500 μM DPPC liposome only were used as the controls.
All protein samples were prepared in 20 mM PBS buffer containing 150 mM NaCl, 1 mM EDTA and 1 mM DTT.
Protein aggregation and aggregate dissociation. The aggregates of the wild-type and mutated αA- and αB-crystallin proteins were obtained by heating the protein solutions containing 1 M guanidine chloride (ultrapure, Sigma-Aldrich) at a con-centration of 5 mg/ml at 60° C. for 2 h. The aggregates of the wild-type and mutated b- and c-crystallins were prepared by heating the protein solutions containing 1 M guanidine chloride at 37° C. for 48 h. The formation of aggregates was confirmed by ThT fluorescence, turbidity (absorbance at 400 nm) and transmission electron microscopy (TEM) observations. […] After 24 h of treatment, the protein solutions were used for ThT fluorescence, turbidity and negatively stained TEM observations. […]

[3] = test system: naturally occurring cataractous lenses from rabbits; assay: Treatment of isolated cataractous rabbit lenses; parameters: key to cataract grade before treatment / cataract grade after treatment: Grade 0: absence of opacification (gridlines clearly visible); Grade 1: a slight degree of opacification (minimal clouding of gridlines, with gridlines still visible); Grade 2: presence of diffuse opacification involving almost the entire lens (moderate clouding of gridlines, with main gridlines visible); Grade 3: presence of extensive, thick opacification involving the entire lens (total clouding of gridlines, with gridlines not seen at all)
Text: FIG. 12A, FIG. 12B, and FIG. 12C show grading system of cataractous lenses. […] The degree of transparency was scored as 0, a clear lens and absence of opacification (gridlines clearly visible, a′); 1, a blurry lens and a slight degree of opacification (minimal clouding of gridlines, with gridlines still visible, b′); 2, a cloudy lens and presence of diffuse opacification involving almost the entire lens (moderate clouding of gridlines, with main gridlines visible, c′); or 3, an opaque lens and presence of extensive thick opacification involving the entire lens (total clouding of gridlines, with gridlines not seen at all, d′). […] Rabbit lenses (n=13) were dissected and incubated with lanosterol for 6 days and subsequently assessed for lens clarity and transparency. Pairs of photographs of each cataractous rabbit lens showing before and after treatment with scores underneath are shown. […] Dog eyes with cataracts (n=7) were treated with lanosterol for 6 weeks and assessed for lens clarity and transparency. A pair of photographs of each study eye before and after treatment is shown with scores underneath. Three control eyes treated with vehicles alone are also presented.
Treatment of cataractous rabbit lenses. Rabbits were euthanized by CO2 inhalation and lenses were immediately dissected and treated with vehicle or lanosterol dissolved in vehicle to make 25 mM solutions. Lens tissues were incubated in these solutions for 6 days in the dark at room temperature. Cataracts were examined under a microscope and photographed. Degree of cataract was assessed by a blinded examiner using a previously described opacification grading system, shown below^32,33. Improvements in lens clarity and transparency were quantified by visual inspection and grading. Lens clarity was scored by transmission of light, clarity of a grid image underneath the lens (FIG. 12A, FIG. 12B, FIG. 12C), and improvement in overall clarity of a lens or improvement in clarity of localized areas of cortical cataract. Wilcoxon test was used to evaluate the treatment effect.
Cataract grading system. […]

For `CC(C)=CCC[C@@H](C)[C@H]1CC[C@@]2(C)C3=C(CC[C@]12C)[C@@]1(C)CC[C@H](O)C(C)(C)[C@@H]1CC3` [lanosterol, 3β-Hydroxy-8,24-lanostadiene; 8,24-Lanostadien-3β-ol], the “percentage of cells with crystallin aggregates versus control group (rescue)” value ([1]; HLEB-3 cells co-transfected with LSS and crystallin mutant, 40 μM sterols 2 h, lanosterol P<1×10^−4, cholesterol P>0.1) was “significantly lower”, the “intracellular aggregation caused by cataract-causing mutant crystallin proteins” value ([1]; HLEB-3 cells, 10, 20 and 40 μM lanosterol in 1% DMSO for 2 h, concentration-dependent) was “significantly reduced the intracellular aggregation” and the “re-dissolution of aggregated crystallin proteins from amyloid-like fibrils” value [2] was “successfully re-dissolved the aggregated crystallin proteins”. The “cataract grade after treatment” value ([3]; isolated rabbit lens incubated in 25 mM lanosterol solution for 6 days, n=13) was 1 and 0, the “cataract grade before treatment” value ([3]; isolated rabbit lens, baseline of each lanosterol-treated sample, n=13) was 2 and 1 and 3 and the “cataract severity / lens clarity” value ([3]; isolated rabbit lenses, 25 mM lanosterol, 6 days, P<0.003, Wilcoxon Test) was “strong trend of reduction in cataract severity; also recorded: reduced cataract severity and increased clarity”.
